# Patent publication US20120172359A1 (NOVARTIS AG, priority 2010, published 2012)
# Experiments:
# Human BACE-1 = Human BACE-1 (Homo sapiens, UniProt P56817); assay: Test 1: Inhibition of Human BACE-1; format: biochemical; conditions: Test 1; recombinant BACE-1 (extracellular domain), acetate buffer pH 4.5, 1 hour with test compound at room temperature, fluorescence-quenched peptide substrate; read-out: Bace IC50
# [1] = system: cellular release of amyloid peptide 1-40; assay: Test 4: Inhibition of Cellular Release of Amyloid Peptide 1-40; format: cell-based; conditions: Cricetulus griseus, Chinese hamster ovary cells transfected with the gene for amyloid precursor protein, 24 hours with test compound, amyloid peptide 1-40 in supernatant, read-out: Bace IC50
# Experimental: Test 4: Inhibition of Cellular Release of Amyloid Peptide 1-40
# Chinese hamster ovary cells are transfected with the gene for amyloid precursor protein. The cells are plated at a density of 8000 cells/well into 96-well microtiter plates and cultivated for 24 hours in DMEM cell culture medium containing 10% FCS. The test compound is added to the cells at various concentrations, and the cells are cultivated for 24 hours in the presence of the test compound. The supernatants are collected, and the concentration of amyloid peptide 1-40 is determined using state of the art immunoassay techniques, for example sandwich ELISA, homogenous time-resolved fluorescence (HTRF) immunoassay, or electro-chemiluminescence immunoassay.
# Human BACE-1, sequence (P56817 46-457 limits assumed): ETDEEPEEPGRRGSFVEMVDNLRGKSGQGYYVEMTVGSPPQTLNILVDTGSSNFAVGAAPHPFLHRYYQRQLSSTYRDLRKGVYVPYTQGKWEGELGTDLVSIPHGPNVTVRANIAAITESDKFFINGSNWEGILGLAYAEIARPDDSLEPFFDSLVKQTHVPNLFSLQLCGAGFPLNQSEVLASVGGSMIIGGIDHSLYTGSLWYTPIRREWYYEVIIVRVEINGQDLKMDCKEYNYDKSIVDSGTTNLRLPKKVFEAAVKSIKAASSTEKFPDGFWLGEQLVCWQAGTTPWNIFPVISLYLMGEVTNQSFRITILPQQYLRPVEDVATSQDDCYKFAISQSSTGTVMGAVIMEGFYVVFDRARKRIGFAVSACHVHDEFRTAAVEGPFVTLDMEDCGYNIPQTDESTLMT
Structure (SMILES),IC50 (Human BACE-1),IC50 [1]
"[2H]c1nc(C(=O)Nc2ccc(F)c([C@]3(C(F)F)COCC(N)=N3)c2)c(C([2H])([2H])[2H])c([2H])c1C#N [Example 147, 5-Cyano-4,6-dideutero-3-trideuteromethyl-pyridine-2-carboxylic acid [3-((R)-5-amino-3-difluoromethyl-3,6-diydro-2H-[1,4]oxazin-3-yl)-4-fluoro-phenyl]-amide]",79 nM,8 nM
"CC#CCOc1cnc(C(=O)Nc2ccc(F)c([C@]3(C(F)F)COCC(N)=N3)c2)cn1 [Example 164, 5-But-2-ynyloxy-pyrazine-2-carboxylic acid [3-((R)-5-amino-3-difluoromethyl-3,6-dihydro-2H-[1,4]oxazin-3-yl)-4-fluoro-phenyl]-amide]",1 nM,1 nM
"COc1cnc(C(=O)Nc2ccc(F)c([C@]3(C(F)F)COCC(N)=N3)c2)c(N)n1 [Example 175, 3-Amino-5-methoxy-pyrazine-2-carboxylic acid [3-((R)-5-amino-3-difluoromethyl-3,6-dihydro-2H-[1,4]oxazin-3-yl)-4-fluoro-phenyl]-amide]",16 nM,4 nM
